Measured values taken from patent US9518018B2, “3-alkoxy, thioalkyl and amino-4-amino-6-(substituted)picolinates and their use as herbicides” (Dow AgroSciences LLC, priority 2011, dated 2016).

Tests used:
Assay type in all cases: in vivo
[1] = test system: AMARE: pigweed, redroot (Amaranthus retroflexus); experiment: Pre-emergent Test I herbicidal activity; details: Table 5, 140 g ai/ha
Description: (§1) Seeds of the desired test plant species were planted in a soil matrix prepared by mixing a loam soil (43 percent silt, 19 percent clay, and 38 percent sand, with a pH of about 8.1 and an organic matter content of about 1.5 percent) and sand in a 70 to 30 ratio. The soil matrix was contained in plastic pots with a surface area of 113 square centimeters. When required to ensure good germination and healthy plants, a fungicide treatment and/or other chemical or physical treatment was applied.
(§2) A weighed amount, determined by the highest rate to be tested, of each test compound was placed in a 25 mL glass vial and was dissolved in 6 mL of a 97:3 v/v (volume/volume) mixture of acetone and DMSO to obtain concentrated stock solutions. […] The stock solutions obtained were diluted with 18 mL of a 0.1% v/v aqueous solution of Tween® 20 surfactant to obtain spray solutions containing the highest application rate. Additional application rates were obtained by serial dilution of 12 mL of the high rate solution into a solution containing 3 mL of 97:3 v/v mixture of acetone and DMSO and 9 mL of the 0.1% v/v aqueous solution of Tween® 20 surfactant to obtain ½×, ¼×, ⅛× and 1/16× rates of the high rate. Compound requirements are based upon a 12 mL application volume at a rate of 187 L/ha. Formulated compounds were applied to the plant material with an overhead Mandel track sprayer equipped with 8002E nozzles calibrated to deliver 187 L/ha over an application area of 0.503 square meters at a spray height of 18 inches ([…]) above the soil surface. Control plants were sprayed in the same manner with the solvent blank.
(§3) The treated pots and control pots were placed in a greenhouse maintained with an approximate 15 hour photoperiod and temperatures of about 23-29° C. during the day and 22-28° C. during the night. Nutrients and water were added on a regular basis and supplemental lighting was provided with overhead metal halide 1000-Watt lamps as necessary. The water was added by top-irrigation. After 20-22 days, the condition of the test plants that germinated and grew as compared with that of the untreated plants that emerged and grew was determined visually and scored on a scale of 0 to 100 percent where 0 corresponds to no injury and 100 corresponds to complete kill or no emergence.

[2] = test system: CHEAL: lambsquarters (Chenopodium album); experiment: Pre-emergent Test I herbicidal activity; details: Table 5, 140 g ai/ha
Description: as §1, §2, §3

[3] = test system: EPHHL: poinsettia, wild (Euphorbia heterophylla); experiment: Pre-emergent Test I herbicidal activity; details: Table 5, 140 g ai/ha
Description: as §1, §2, §3

[4] = test system: SETFA: foxtail, giant (Setaria faberi); experiment: Pre-emergent Test I herbicidal activity; details: Table 5, 140 g ai/ha
Description: as §1, §2, §3

[5] = test system: ZEAMX: corn (Zea mays); experiment: Pre-emergent Test I herbicidal activity; details: Table 5, 140 g ai/ha
Description: as §1, §2, §3

[6] = test system: ECHOR = Echinochloa crus-galli P.B. var. oryzoides (VAS.) OHWI (early watergrass); experiment: In-water applied herbicidal activity in transplanted paddy rice; details: 21 DAA
Experimental: (§4) Rice seeds were planted in Sun Gro MetroMix 306 planting mixture, which typically has a pH of 6.0 to 6.8 and an organic matter content of about 30 percent, in plastic plug trays. Seedlings at the second or third leaf stage of growth were transplanted into 650 mL of mud contained in 960 mL non-perforated plastic pots with a surface area of 86.59 cm^2 four days prior to herbicide application. The paddy was created by filling the 2.5 to 3 cm headspace of the pots with water. When required to ensure good germination and healthy plants, a fungicide treatment and/or other chemical or physical treatment was applied. The plants were grown for 4-14 d in a greenhouse with an approximate 14-h photoperiod which was maintained at about 29° C. during the day and 26° C. during the night. Nutrients were added as Osmocote (17:6:10, Nitrogen:Phosphorus:Potassium (N:P:K)+minor nutrients) at 2 grams (g) per cup. Water was added on a regular basis to maintain the paddy flood, and supplemental lighting was provided with overhead metal halide 1000-Watt lamps as necessary. The plants were employed for testing when they reached the second or third true leaf stage. Treatments consisted of compounds 45, 34, and 66. For technical grade compounds, a weighed amount, determined by the highest rate to be tested, was placed in an individual 120 mL glass vial and was dissolved in 20 mL of acetone to obtain concentrated stock solutions. […] The concentrated stock solutions obtained were diluted with 20 mL of an aqueous mixture containing 2.5% Agri-dex crop oil concentrate (v/v). Applications were made by injecting an appropriate amount of the stock solution into the aqueous layer of the paddy. Control plants were treated in the same manner with the solvent blank. All treated plant material received the same concentration of acetone and crop oil concentrate. The treated plants and control plants were placed in a greenhouse as described above and water was added as needed to maintain a paddy flood. After approximately 3 weeks, the condition of the test plants, compared with that of the untreated plants, was determined visually and scored on a scale of 0 to 100 percent where 0 corresponds to no injury and 100 corresponds to complete kill. By applying the well-accepted probit analysis as described by J. Berkson in Journal of the […], 48, 565 (1953) and by D. Finney in “Probit Analysis” Cambridge University Press (1952) or by plotting the mean data and fitting a logarithmic curve to the portion of the data where there was a dose response using Microsoft Excel®, the above data can be used to calculate GR50 and GR90 values, which are defined as growth reduction factors that correspond to the effective dose of herbicide required to kill or control 50 percent or 90 percent, respectively, of a target plant.

[7] = test system: FIMMI = Fimbristylis miliacea (L.) VAHL (globe fringerush); experiment: as above; details: 21 DAA
Experimental: as §4

[8] = test system: LEFCH = Leptochloa chinensis (L.) NEES (Chinese sprangletop); experiment: as above; details: 21 DAA
Experimental: as §4

[9] = test system: LIDDU = Lindernia dubia (L.) PENNELL (low falsepimpernel); experiment: as above; details: 21 DAA
Experimental: as §4

[10] = dose to kill or control 50 percent
[11] = dose to kill or control 90 percent

In the case of `COc1c(N)cc(-c2ccc(Cl)cc2)nc1C(=O)O` [Compound 46], the “Visual Growth Reduction (%)-21 Days after Application AMARE” value [1] was 95%, the “Visual Growth Reduction (%)-21 Days after Application CHEAL” value [2] was 95% and the “Visual Growth Reduction (%)-21 Days after Application EPHHL” value [3] was 100%. For the same compound, the “Visual Growth Reduction (%)-21 Days after Application SETFA” value [4] was 100% and the “Visual Growth Reduction (%)-21 Days after Application ZEAMX” value [5] was 0%.
With `COc1c(C(=O)OCc2ccccc2)nc(-c2ccc(Cl)c(OC)c2F)c(F)c1N` [Compound 66, benzyl 4-amino-6-(4-chloro-2-fluoro-3-methoxyphenyl)-5-fluoro-3-methoxypicolinate] the “Mean Visual Injury (%)-21 Days After Application ECHOR” value ([6]; 2.19 g ae/ha) was 0%, the “Mean Visual Injury (%)-21 Days After Application ECHOR” value ([6]; 4.38 g ae/ha) was 0% and the “Mean Visual Injury (%)-21 Days After Application ECHOR” value ([6]; 8.75 g ae/ha) was 8%. The “Mean Visual Injury (%)-21 Days After Application ECHOR” value ([6]; 17.5 g ae/ha) was 21%, the “Mean Visual Injury (%)-21 Days After Application ECHOR” value ([6]; 35 g ae/ha) was 89% and the “Mean Visual Injury (%)-21 Days After Application ECHOR” value ([6]; 70 g ae/ha) was 95%. For the same compound, the “GR50 ECHOR” value [6, 10] was 21.2 g ae/ha, the “GR90 ECHOR” value [6, 11] was 59.0 g ae/ha and the “Mean Visual Injury (%)-21 Days After Application FIMMI” value ([7]; 2.19 g ae/ha) was 0%. For the same compound, the “Mean Visual Injury (%)-21 Days After Application FIMMI” value ([7]; 4.38 g ae/ha) was 10%, the “Mean Visual Injury (%)-21 Days After Application FIMMI” value ([7]; 8.75 g ae/ha) was 36% and the “Mean Visual Injury (%)-21 Days After Application FIMMI” value ([7]; 17.5 g ae/ha) was 73%. The “Mean Visual Injury (%)-21 Days After Application FIMMI” value ([7]; 35 g ae/ha) was 100%, the “Mean Visual Injury (%)-21 Days After Application FIMMI” value ([7]; 70 g ae/ha) was 100% and the “GR50 FIMMI” value [7, 10] was 10.3 g ae/ha. For the same compound, the “GR90 FIMMI” value [7, 11] was 29.7 g ae/ha, the “Mean Visual Injury (%)-21 Days After Application LEFCH” value ([8]; 2.19 g ae/ha) was 0% and the “Mean Visual Injury (%)-21 Days After Application LEFCH” value ([8]; 4.38 g ae/ha) was 0%. The “Mean Visual Injury (%)-21 Days After Application LEFCH” value ([8]; 8.75 g ae/ha) was 0%, the “Mean Visual Injury (%)-21 Days After Application LEFCH” value ([8]; 17.5 g ae/ha) was 0% and the “Mean Visual Injury (%)-21 Days After Application LEFCH” value ([8]; 35 g ae/ha) was 16%. The “Mean Visual Injury (%)-21 Days After Application LEFCH” value ([8]; 70 g ae/ha) was 100%, the “GR50 LEFCH” value [8, 10] was 40.9 g ae/ha and the “GR90 LEFCH” value [8, 11] was 71.2 g ae/ha. For the same compound, the “Mean Visual Injury (%)-21 Days After Application LIDDU” value ([9]; 2.19 g ae/ha) was 0%, the “Mean Visual Injury (%)-21 Days After Application LIDDU” value ([9]; 4.38 g ae/ha) was 100% and the “Mean Visual Injury (%)-21 Days After Application LIDDU” value ([9]; 8.75 g ae/ha) was 100%. For the same compound, the “Mean Visual Injury (%)-21 Days After Application LIDDU” value ([9]; 17.5 g ae/ha) was 100%, the “Mean Visual Injury (%)-21 Days After Application LIDDU” value ([9]; 35 g ae/ha) was 100% and the “Mean Visual Injury (%)-21 Days After Application LIDDU” value ([9]; 70 g ae/ha) was 100%. The “GR50 LIDDU” value [9, 10] was under 4.38 g ae/ha and the “GR90 LIDDU” value [9, 11] was under 4.38 g ae/ha.
